Experimental data published in PMC7318359, “Stapled Peptides as HIF‐1α/p300 Inhibitors: Helicity Enhancement in the Bound State Increases Inhibitory Potency” (Chemistry (Weinheim an Der Bergstrasse, Germany), 2020).
Bridge positions count the residues as written; N and C are the ends. Ends that are not written are not given here. Peptide text beside a SMILES is read from it.

Assays:
[1] = target: HIF‐1α/p300 interaction (Homo sapiens, UniProt Q09472); test: Fluorescence anisotropy competition assay (displacement of FITC‐Ahx‐HIF‐1α786–826 tracer from p300); type: binding; details: p300 (100 nM); for IC50: FA competition, FITC‐Ahx‐HIF‐1α786–826 tracer, 20 mM Tris, 100 mM NaCl 0.1 mM DTT, pH 7.46, read after 45 minutes at room temperature, triplicate
Experimental: Fluorescence anisotropy assays were performed in 384‐well plates (Greiner Bio‐one). Each experiment was run in triplicate and the fluorescence anisotropy measured using a Perkin–Elmer EnVisionTM 2103 MultiLabel plate reader, with excitation at 480 nm (30 nm bandwidth), polarised dichroic mirror at 505 nm and emission at 535 nm (40 nm bandwidth, S and P polarised). All assays were performed in 20 mM Tris, 100 mM NaCl 0.1 mM DTT, pH 7.46 unless otherwise stated and data analysed following previously published methods.
Where I is the total intensity, G is an instrument factor which was set to 1 for all experiments and r is the anisotropy. The average anisotropy (across three experimental replicates) and the standard deviation of these values were then calculated and fit to a sigmoidal logistic model [Eq. (3)] using OriginPro 9.0 which provided the IC50 and error values: y = r max + (r min−r max)/(1+(x/xo) p).
FA competition assays were performed in 384 well plates with the concentration of peptide competitor typically starting from 850 μM, diluted over 16 points in 1/2 regime with fixed protein and tracer concentrations. […] For control wells, the tracer peptide was replaced with an identical volume of assay buffer. The total volume in each well was 60 μL. Plates were read after 45 minutes of incubation at room temperature.

[2] = target: p300 (UniProt Q09472 1-2414); test: fluorescence polarisation; fluorescence anisotropy competition; peptide competitor diluted from about 850 μM over 16 points against fixed p300 (100 nM) and FITC tracer (25 nM in the legend, 50 nM in the methods); 20 mM Tris, 100 mM NaCl, 0.1 mM DTT, pH 7.46; 45 minutes at room temperature; details: both partners purified
p300, sequence (Q09472 whole entry): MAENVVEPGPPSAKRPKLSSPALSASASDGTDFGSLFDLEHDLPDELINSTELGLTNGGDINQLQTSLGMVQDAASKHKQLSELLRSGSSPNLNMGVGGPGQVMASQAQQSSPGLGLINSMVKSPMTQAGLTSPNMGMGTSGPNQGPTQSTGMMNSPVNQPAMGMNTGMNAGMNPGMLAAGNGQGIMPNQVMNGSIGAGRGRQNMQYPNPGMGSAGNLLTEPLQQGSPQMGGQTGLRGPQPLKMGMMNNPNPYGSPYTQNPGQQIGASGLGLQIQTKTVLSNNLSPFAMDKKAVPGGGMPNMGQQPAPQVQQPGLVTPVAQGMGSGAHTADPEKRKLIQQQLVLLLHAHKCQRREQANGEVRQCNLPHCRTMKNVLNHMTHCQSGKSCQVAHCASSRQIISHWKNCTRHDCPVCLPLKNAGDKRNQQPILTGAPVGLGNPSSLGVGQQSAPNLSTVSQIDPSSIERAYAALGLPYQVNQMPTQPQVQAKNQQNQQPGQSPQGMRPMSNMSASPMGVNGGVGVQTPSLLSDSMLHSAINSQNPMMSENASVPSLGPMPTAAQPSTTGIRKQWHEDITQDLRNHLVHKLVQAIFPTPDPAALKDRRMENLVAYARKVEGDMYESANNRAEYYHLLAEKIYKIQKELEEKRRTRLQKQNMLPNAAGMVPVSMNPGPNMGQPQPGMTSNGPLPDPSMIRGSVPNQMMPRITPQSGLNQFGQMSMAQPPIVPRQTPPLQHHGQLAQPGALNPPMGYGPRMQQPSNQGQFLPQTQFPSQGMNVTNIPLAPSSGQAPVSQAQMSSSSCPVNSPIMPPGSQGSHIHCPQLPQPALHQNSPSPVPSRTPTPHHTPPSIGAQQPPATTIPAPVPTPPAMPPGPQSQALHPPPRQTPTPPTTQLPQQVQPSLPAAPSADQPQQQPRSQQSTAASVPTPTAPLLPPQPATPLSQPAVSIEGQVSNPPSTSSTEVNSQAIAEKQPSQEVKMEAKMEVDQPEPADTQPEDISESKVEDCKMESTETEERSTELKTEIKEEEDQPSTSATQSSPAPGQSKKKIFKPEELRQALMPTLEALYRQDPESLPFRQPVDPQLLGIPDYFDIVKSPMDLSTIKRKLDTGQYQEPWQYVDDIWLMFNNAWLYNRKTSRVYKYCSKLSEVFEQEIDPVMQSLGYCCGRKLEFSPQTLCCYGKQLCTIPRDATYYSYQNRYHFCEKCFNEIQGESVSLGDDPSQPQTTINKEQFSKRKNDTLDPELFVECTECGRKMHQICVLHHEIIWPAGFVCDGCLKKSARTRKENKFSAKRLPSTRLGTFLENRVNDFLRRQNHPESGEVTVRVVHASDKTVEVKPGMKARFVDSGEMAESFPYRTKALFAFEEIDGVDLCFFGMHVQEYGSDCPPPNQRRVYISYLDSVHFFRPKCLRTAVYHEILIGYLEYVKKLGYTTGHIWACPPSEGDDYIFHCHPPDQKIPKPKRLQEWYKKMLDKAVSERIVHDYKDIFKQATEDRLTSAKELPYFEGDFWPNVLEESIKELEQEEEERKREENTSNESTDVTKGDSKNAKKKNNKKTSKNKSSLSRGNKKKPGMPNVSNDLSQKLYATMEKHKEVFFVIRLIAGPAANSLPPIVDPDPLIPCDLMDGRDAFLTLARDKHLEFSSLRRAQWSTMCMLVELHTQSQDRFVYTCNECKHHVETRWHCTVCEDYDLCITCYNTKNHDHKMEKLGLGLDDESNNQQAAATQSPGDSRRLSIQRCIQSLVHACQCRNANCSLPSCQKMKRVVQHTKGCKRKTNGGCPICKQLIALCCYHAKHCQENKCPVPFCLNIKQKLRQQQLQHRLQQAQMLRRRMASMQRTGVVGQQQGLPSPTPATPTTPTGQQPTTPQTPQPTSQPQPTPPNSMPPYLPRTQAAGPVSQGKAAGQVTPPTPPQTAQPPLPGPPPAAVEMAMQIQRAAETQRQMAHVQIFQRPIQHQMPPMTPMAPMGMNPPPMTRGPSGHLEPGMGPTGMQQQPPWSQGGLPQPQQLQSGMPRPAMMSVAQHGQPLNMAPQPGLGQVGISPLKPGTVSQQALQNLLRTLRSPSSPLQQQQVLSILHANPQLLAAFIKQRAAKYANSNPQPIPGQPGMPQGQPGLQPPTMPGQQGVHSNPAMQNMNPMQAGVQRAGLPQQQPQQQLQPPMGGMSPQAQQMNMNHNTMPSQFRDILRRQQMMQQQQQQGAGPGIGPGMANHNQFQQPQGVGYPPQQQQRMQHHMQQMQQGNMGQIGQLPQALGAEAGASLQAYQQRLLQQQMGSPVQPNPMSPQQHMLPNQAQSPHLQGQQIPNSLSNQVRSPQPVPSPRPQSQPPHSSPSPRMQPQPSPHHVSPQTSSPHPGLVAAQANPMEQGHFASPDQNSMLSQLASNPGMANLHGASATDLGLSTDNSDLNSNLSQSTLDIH

| Molecule | IC50 [1] | other results |
| --- | --- | --- |
| CC(=O)N[C@@H](CC(C)C)C(=O)N[C@@H](CCC(N)=O)C(=O)NCC(=O)N[C@@H](CS)C(=O)N[C@@H](CCC(=O)O)C(=O)N[C@@H](CC(C)C)C(=O)N[C@@H](CC(C)C)C(=O)N[C@@H](CS)C(=O)N[C@@H](C)C(=O)N[C@@H](CC(C)C)C(=O)N[C@@H](CC(=O)O)C(=O)N[C@@H](CCC(N)=O)C(=O)N[C@H](C(=O)N[C@@H](CC(N)=O)C(N)=O)C(C)C [HIF‐1α812–826 redE816C‐R820C] (Ac-LQGCELLCALDQVN-NH2) | 9.9 µM |  |
| CC(=O)N[C@@H](CC(C)C)C(=O)N[C@@H](CCC(N)=O)C(=O)NCC(=O)N[C@H]1CSSC[C@@H](C(=O)N[C@@H](C)C(=O)N[C@@H](CC(C)C)C(=O)N[C@@H](CC(=O)O)C(=O)N[C@@H](CCC(N)=O)C(=O)N[C@H](C(=O)N[C@@H](CC(N)=O)C(N)=O)C(C)C)NC(=O)[C@H](CC(C)C)NC(=O)[C@H](CC(C)C)NC(=O)[C@H](CCC(=O)O)NC1=O [HIF‐1α812–826 oxE816C‐R820C] (Ac-LQGCELLCALDQVN-NH2; disulfide 4-8) | > 600 µM |  |
| Ac-LQGEELLRALDQVN-NH2 [wt‐HIF‐1α812–826, wild‐type HIF‐1α helix 3 peptide, N‐acetyl, C‐terminal amide] |  | Inhibition / tracer displacement in FA competition assay ([1]; FITC‐Ahx‐HIF‐1α786–826 tracer (25 nM), pH 7.46): weak inhibition and could not fully displace tracer |
| Ac-LLQGCELLCALDQVN (peptide, UniProt Q16665 812-826, looked up, bridge 5-9; not fully specified (bridges), Made on Rink Amide MBHA resin, so probably a C-terminal amide; also called stapled peptide; dibromomaleimide stapled (s) E816C-R820C; source: synthetic peptide) [HIF‐1α_(812–826) sE816C‐R820C] |  | IC50 [2]: 30.3 ± 5 µM |
